The values that follow come from ChEMBL document CHEMBL2094269, “WEHI/Eskitis Trypanosoma b. brucei screening data”.

Series [1] can be described thus: DNDI: Cytotoxicity against human MRC-5 lung fibroblast cells. The conditions noted are these: IC50.
Series [2] concerns Trypanosoma brucei brucei. As to the kind of experiment: microbe, parasite or virus in culture. It counts as functional, organism-based, STIB 795. The conditions noted are these: Trypanosoma brucei, STIB 795.
Description: DNDI: Inhibition of Human African Trypanosomiasis (HAT), STIB 795, in vitro

By IC50 is commonly meant the point on the concentration scale where inhibition reaches its midpoint. The low end stands for greater potency in that assay, the high end for weaker potency in that assay. As to `CN(C)c1ccc(/C=C\C=C\c2ccc[n+](C)c2)cc1`, the concentration for half-maximal inhibition (IC50) in series [1] is more than 20.8 µM; in series [2] it was 0.354 µM.
Regarding `Cc1cc(C)nc(Nc2nc(N)c3ccccc3n2)n1`, the values for the IC50 in series [1] and in series [2] were 6.09 µM and 3.79 µM, respectively.
For `CCN(Cc1ccccc1)S(=O)(=O)c1ncn[nH]1`, in that order: more than 41.7 µM and 3.38 µM.
Regarding `CCCCCc1ccc(-c2ccc(C(=N)N)cc2)cc1`, the figures for the IC50 in series [1] and in series [2] were 15.5 µM and 5.73 µM, respectively.
On to `COc1ccc(Nc2nc3ccccc3c(=O)o2)cc1`, for which the values for the IC50 in series [1] and in series [2] were more than 20.8 µM and 0.435 µM, respectively.
On to `Cc1ccc(C23CC4CC(CC(CN)(C4)C2)C3)cc1C`, for which the 50% inhibitory concentration (IC50) is more than 20.8 µM in series [1] and 0.91 µM in series [2].
On to `C/C(Cl)=C\CN1C(=O)C(=O)c2cc(Cl)ccc21`, for which the half-maximal inhibitory concentration (IC50) was more than 41.7 µM in series [1] and 4.87 µM in series [2].
`O=C(Cc1cc(O)[nH]n1)N/N=C/C=C/c1ccccc1`: the concentration for half-maximal inhibition (IC50) in series [1] is more than 41.7 µM; in series [2], 5.31 µM.
For `CCC(C)NC(=O)c1nc(-c2ccccc2)cnc1N` (stereo not given), the half-inhibitory concentration (IC50) was more than 41.7 µM in series [1] and 0.426 µM in series [2].
The like results for `CC1CS/C(=N/c2ccc(Br)cc2)N1` (stereo not given) were, in that order, more than 41.7 µM and 6.65 µM.
In the case of `C/C(=N\NC(=O)Cc1ccc(F)cc1)c1ccccn1`, the IC50 in series [1] is more than 4.17 µM; in series [2], 5.17 µM.
For `O=C1CC(n2nnnc2-c2ccccc2)C2COC1O2` (stereo not given), the half-maximal inhibitory concentration (IC50) was more than 20.8 µM in series [1] and 2.18 µM in series [2].
In the case of `CN(C)c1ccc(C2=Nc3cccc4cccc2c34)cc1`, the half-maximal inhibitory concentration (IC50) is more than 41.7 µM in series [1] and 0.434 µM in series [2].
Consider `COc1ccc(CC(C)N)c(Sc2ccccc2)c1` (stereo not given), for which the values for the IC50 in series [1] and in series [2] were more than 41.7 µM and 5.42 µM, respectively.
With `c1coc(CNc2c3ccccc3nc3ccccc23)c1`, the figures for the half-maximal inhibitory concentration (IC50) in series [1] and in series [2] were more than 4.17 µM and 2.73 µM, respectively.
Take `C[N+](CC#CC1CC1)(C1CCCCC1)C1CCCCC1`: the results for the IC50 in series [1] and in series [2] were more than 41.7 µM and 8.85 µM, respectively.
Take `Oc1ccc(Cn2cnc3ccccc32)c2cccnc12`: the IC50 in series [1] is more than 4.17 µM; in series [2], 1.55 µM.
Regarding `Cc1ccc(OCCCCCN2CCNCC2)c(C)c1`, the IC50 was more than 41.7 µM in series [1] and 5.38 µM in series [2].
For `CN(C)CCCNCCCc1ccc(C(C)(C)C)cc1`, in that order: 8.02 µM and 0.079 µM.
For `COC(=O)c1[nH]cc2c3cccnc3c3ncccc3c12`, in that order: 0.59 µM and 0.064 µM.
As to `Cc1ccc(/N=N/c2ccc(O)c3ncccc23)cc1C`, the IC50 in series [1] is more than 20.8 µM; in series [2] it was 4.92 µM.
Take `CC[n+]1ccccc1/C=C1\C=Cc2cc(C)ccc2N1C`: the results for the concentration for half-maximal inhibition (IC50) in series [1] and in series [2] were more than 20.8 µM and 0.911 µM, respectively.
For `N=C(N)n1nc(-c2ccccc2)cc1-c1ccccc1O`, in that order: more than 20.8 µM and 5.07 µM.
On to `Cc1nn2c3c(nnc2c1-c1ccccc1)C(=O)CCC3`, for which the IC50 in series [1] is 18.1 µM; in series [2] it was 0.697 µM.
On to `O=C(Nc1cccc(Cl)c1)O/N=C1\CC2CCC1C2` (stereo not given), for which the half-maximal inhibitory concentration (IC50) is more than 20.8 µM in series [1] and 0.857 µM in series [2].
For the molecule `CN(C)CCn1c2ccccc2c2cnc(N)c(C#N)c21`, the results for the IC50 in series [1] and in series [2] were more than 4.17 µM and 3.62 µM, respectively.
For `Cc1cc(N2CCN(C)CC2)c2[nH]c3ccccc3c2c1`, in that order: 7.26 µM and 0.748 µM.
Take `Cc1nnc(N/N=C/c2cc(Cl)ccc2O)nc1O`: the figures for the half-maximal inhibitory concentration (IC50) in series [1] and in series [2] were 4.74 µM and 3.65 µM, respectively.
On to `O=C(N/N=C/c1c(O)ccc2ccccc12)c1cc[nH]n1`, for which the IC50 is more than 20.8 µM in series [1] and 2.68 µM in series [2].
With `Cc1ccc(/C(=C\CCNCCN)c2ccccc2)cc1`, the IC50 in series [1] is more than 20.8 µM; in series [2], 0.269 µM.
Consider `O=C(N/N=C\c1cc(Cl)ccc1O)c1cccs1`, for which the IC50 in series [1] is more than 41.7 µM; in series [2], 10.9 µM.
For `N/C(=N\OC(=O)c1cccs1)c1ccccc1Cl`, in that order: more than 20.8 µM and 0.766 µM.
The like results for `CC1(C)OC(C)(C)/C(=C/c2ccc3cccnc3c2)C1=O` were, in that order, more than 20.8 µM and 5.21 µM.
Consider `Cn1ccc(/C=C2/CCC/C(=C\c3ccn(C)n3)C2=O)n1`, for which the IC50 in series [1] was more than 20.8 µM; in series [2], 5.61 µM.
The like results for `COc1ccc(NCC2COc3ccccc3C2=O)cc1` (stereo not given) were, in that order, more than 41.7 µM and 4.91 µM.
In the case of `COC12C=CC(CC1)C1C(=O)c3cccc(O)c3C(=O)C12` (stereo not given), the concentration for half-maximal inhibition (IC50) in series [1] was more than 20.8 µM; in series [2] it was 2.48 µM.
For the molecule `CCCCc1c(C)[nH]n(-c2nc3ccccc3[nH]2)c1=O`, the IC50 in series [1] is more than 1.04 µM; in series [2], 0.895 µM.
As to `CN(C)CCCNc1c2c(nc3ccccc13)CCC2`, the half-maximal inhibitory concentration (IC50) in series [1] was determined as 5.76 µM; in series [2] it was 1.82 µM.
Take `N#Cc1c(N)nc2[nH]nc(N)c2c1-c1ccccc1`: the IC50 in series [1] is more than 20.8 µM; in series [2] it was 3.04 µM.
Consider `CCN1/C(=C/c2cccc[n+]2C)C=Cc2cc(C)ccc21`, for which the IC50 in series [1] is more than 20.8 µM; in series [2] it was 0.909 µM.
